From patent US6120997A, “Nucleic acid binders having an hydroxyamine motif” (The Scripps Research Institute, priority 1998, dated 2000)
Entries after “also recorded” stand apart in the source; their conditions may differ. *1 amine or outer side, *2 acyl side, *3 side chain or, on linkers, in order; H or OH if unused. Where a SMILES comes first, the peptide text is derived from it. Bridges are numbered along the chain shown (N, C = ends). [ ]: non-standard residue; d: D form. The star is where a group is joined. X2 = NC1=N[C@@H]([C@H](N[*:1])C(=O)[*:2])C[C@H](O)N1; ΔAla(Z-3-ureido) = NC(=O)N/C=C(\N)C(=O)O; X1 = NCC[C@@H](O)[C@H](N)CC(=O)*; Dap = NC[C@H](N)C(=O)O

Columns and labels:
[1] = tested on: bacterial protein synthesis; details: cited from earlier work
[2] = tested on: Escherichia coli (ATCC 25922); assay: minimum inhibitory concentration, broth dilution technique; assay type: cell-based; details: E. coli, liquid culture
Source text: We reasoned that this modification would provide the cleanest test for probing the ionic contribution, since hydrogen bond donor abilities, electronegativity and steric demand are similar for both functional groups. In order to learn how well the model system correlates with in vivo activity, we checked the new compounds for antibacterial activity against three bacterial strains using the disc method (Kirby-Bauer technique). The minimum inhibitory concentrations (MICs) of the compounds were then determined using the broth dilution technique. For antibiotic testing protocols, see: (a) Disk testing protocols: Phillips, I.; Williams, D., in Laboratory Methods in Antimicrobial Chemotherapy, Garrod, L. (ed.) Churchill Livingstone Press: Edinburgh, 1978, pp. 3-30. (b) MIC determination: Waterworth, P. M., in Laboratory Methods in Antimicrobial Chemotherapy, Garrod, L. (ed.) Churchill Livingstone Press: Edinburgh, 1978, pp. 31-40; Barry, A. L. The Antimicrobic Susceptibility Test: Principles and Practice, Lea and Febiger: Philadelphia (1976). (c) Standards: Lorian, V., Antibiotics in Laboratory Medicine (2nd. ed.), Williams and Wilkins: Baltimore, 1986.
FIG. 39A gives the zone diameters measured for the three bacterial strains. The zone diameters measured for the strains with known antibiotics are well within the accepted limits. […] It is worth noting that some testing protocols recommend overnight growth of the cultures, rather than the minimum time required to obtain good growth of the control. MIC values were tested for several of the control antibiotics using overnight growth, and the MIC values observed were 2-4× greater than those observed for 4-6 hour growth.
Minimal Inhibitory Concentration (MIC) testing. E. coli ATCC 25922 was grown in Mueller-Hinton broth (cation-adjusted, BBL Microbiology Systems) to an optical density of approx. 0.5 (absorbance read at 600 nm), then diluted to an OD600 of 0.1. Samples of antibiotic were prepared in Mueller-Hinton broth, typically a series of 2-fold dilutions from […]. […] The absorbance of each sample was read (1=600 nm), and MIC was considered to be the lowest antibiotic concentration at which the absorbance was less than 1% of the no-antibiotic control.

Neo16-bd = assay: SPR binding of aminoglycosides to Neo16-bd aptamer; details: HBS-buffer; read-out: Kd, Neo16bd
Method: Conditions: 10 mM HEPES (pH 7.4), 0.1 mM EDTA and NaCl as indicated.
The binding of aminoglycosides to RNA is likely to involve substantial ionic contributions and therefore should be strongly influenced by competing buffer ions. […] We studied the salt dependence of neomycin B binding to RBE3, RBE3-neg and Neo16-bd (FIG. 14) by varying the concentration of NaCl included in the injection buffer (10 mM HEPES, pH 7.4, 0.1 mM EDTA). […] This neomycin binding motif was obtained by in vitro selection under conditions of high ionic strength.
To further improve our understanding of specific aminoglycoside recognition, we have also included an artificial aminoglycoside receptor that was evolved in vitro to recognize an aminoglycoside. A number of RNA aptamers for small molecules have been reported in recent years. Among them are aptamers that recognize the aminoglycosides tobramycin, lividomycin and kanamycin.
For comparison, the corresponding values for AS-wt are also included.
(§1) General Procedures for SPR Binding Studies done in Example 5. Samples were prepared by serial dilutions from stock solutions in RNase free microfuge tubes (Ambion) and were centrifuged at 14000 rpm for degassing. Unless otherwise noted, all binding studies were carried out using HBS buffer (Pharmacia Biosensor AB) which was used as obtained. All procedures for binding studies were automated as methods using repetitive cycles of sample injection and regeneration. Typically, buffer was injected in the first two cycles to establish a stable baseline value. Samples were injected at a flowrate of […] using either the KINJECT command. All aminoglycoside samples were injected from autoclaved 7 mm plastic vials that were capped with pierceable plastic crimp caps. To minimize carry over, samples were injected in order of increasing concentration. The running buffer was identical to the injection buffer.

AS-wt = assay: SPR binding of aminoglycosides to decoding region A-site model AS-wt; set-up: species or system E. coli; details: for RNA binding, affinity or specificity for AS-wt (in words): Example 4
Method: The RNA binding properties of 100-800 were analyzed using a surface plasmon resonance based assay that was recently developed in these laboratories. This assay allows the determination of both affinity and specificity of small molecule-RNA interactions. For the analysis, the compounds were injected over a matrix containing RNA that was immobilized through a biotin tag and the equilibrium binding values were recorded at various concentrations.
Non-linear curve fitting was then used to determine the values of the dissociation constants (KD). The specificity of binding, i.e. the ability to discriminate between different RNA sequences was evaluated by comparing the binding to the target sequence (AS-wt) and the negative control (AS-U1495A). The ratio of KD(AS-U1495A) to KD(AS-wt) was taken to be a representation of the specificity of the binding event.
For the quantitative measurement of aminoglycoside binding to these sequences, we utilized our recently developed SPR-based assay. Biotinylated derivatives of all sequences were prepared by in vitro transcription in the presence of guanosine 5'-monophosphorothioate followed by alkylation with a biotin iodoacetamide derivative. The RNA conjugates were then immobilized onto streptavidin coated SPR-sensorchips for analysis.
In the same manner as illustrated for paromomycin, a panel of aminoglycosides was screened and the results are compiled in the table of FIGS. 46 and 47. In addition to the naturally occuring aminoglycoside antibiotics, some of the compounds in FIG. 46 are synthetically derived, unnatural aminoglycosides. The number of independent determinations for each dissociation constant ranged from 1-3. […] All data were recorded under near physiological salt conditions (HBS-buffer: 150 mM NaCl, 10 mM HEPES, pH7.4, 3.4 mM EDTA) unless noted otherwise. Data points were taken at concentrations ranging from […]. Below this concentration range, surface transport limitations prevent the attainment of equilibrium.
Plasmon resonance and antimicrobial testing for Example 4. Synthesis of the biotinylated RNA and surface plasmon resonance detected binding experiments were performed as described vida supra. Solution conditions: 150 mM NaCl, 10 mM HEPES (pH 7.4), 3.4 mM EDTA. KD determination from the binding curves.
The fitting routine of the program kaleidagraph was used for all calculations. The starting values for a and b were set to 1 and 0 respectively. The number of KD values used in the fitting was adjusted depending on the observed range of equivalents bound but generally varied from 3 to 4.
as §1, with “buffer. Expected values for the equilibrium response of one equivalent of analyte were calculated from the relative molecular weight of the analyte and the immobilized RNA ligand in each flowcells and adjusted with a correction factor of 0.76 which arises from the different molar refractive indices of RNA and the analyte. […]” for “buffer.”

wt-RRE-II = assay: SPR binding of aminoglycosides to wt-RRE-II; set-up: species or system HIV-1; details: comparison of aminoglycosides
Method: FIGS. 9A and 9B illustrate neomycin B binding to RBE3, RBE3-neg and wt-RRE-II. (A) Semilogarithmic plot. […] Conditions: pH 7.0, 10 mM HEPES, 150 mM NaCl, 0.1 mM EDTA, […].
FIGS. 10A and 10B illustrate paromomycin binding to RBE3, RBE3-neg and wt-RRE-II. (A) Semilogarithmic plot; the dashed line indicates the binding of neomycin B to wt-RRE-II for comparison (B) Scatchard plot. […] Conditions: pH 7.0, 10 mM HEPES, 150 mM NaCl, 0.1 mM EDTA, […].
FIG. 11 illustrates the kinetic stability of wt-RRE-II complexes with neomycin B vs. paromomycin. […] Data points were taken after 1 min of dissociation.
Binding of the aminoglycoside to all three RNA oligonucleotides is observed starting in the low nanomolar concentration range and is non-saturable over the concentration range investigated. […] The high degree of non-specific binding is not surprising considering that aminoglycosides are highly charged polycations that tend to associate nonspecifically with the polyanionic phosphate backbone of RNA. […] Data points corresponding to 0.5 or more equivalents of neomycin B represent equilibrium values and can be analyzed with respect to stoichiometry and affinity of aminoglycoside binding. […] Both sequences bind one molecule of neomycin B with submicromolar affinity followed by weaker association with several additional equivalents of the antibiotic.
Samples were prepared by serial dilutions from stock solutions in RNase free microfuge tubes (Ambion) and were centrifuged at 14000 rpm for degassing. Buffers were filtered through sterile 0.2 &m nylon membranes (Nalgene) under vacuum, except for BIA certified HBS buffer (Pharmacia Biosensor AB) which was used as obtained. All procedures for binding studies were automated as methods using repetitive cycles of sample injection and regeneration. Typically, buffer was injected in the first two cycles to establish a stable baseline value. Samples were injected at a flowrate of 5-10 &L/min using either the KINJECT or the COINJECT command. All aminoglycoside and Rev27 samples were injected from autoclaved 7 mm plastic vials that were capped with pierceable plastic crimp caps. To minimize carry over, samples were injected in order of increasing concentration. The running buffer was identical to the injection buffer, except for the salt dependence study where a single running buffer was used for all injections. Expected values for the equilibrium response of one equivalent of analyte were calculated from the relative molecular weight of the analyte and the immobilized RNA ligand in each flowcells. These values were adjusted by multiplying with a factor of 0.8 or 0.57 for Rev27 or aminoglycosides respectively. These factors arise from the different molar refractive indices of RNA and the analyte and were determined from the Scatchard plot x-axis intercepts of the 1:1 binding isotherms for Rev27 and neomycin B.
Binding Studies with Aminoglycosides.
Neomycin B sulfate (Fluka) was converted to the free base by passing it through Amberlite IRA 400 (OH-- form) and purified by ion exchange chromatography on Dowex 1-X2 100 to remove neomycin C; the purity of neomycin B was verified by NMR in D2 O. Paromomycin sulfate was obtained from Sigma and used as received. Samples were prepared by dilution from 10 mM stock solutions in injection buffer (10 mM HEPES, pH 7.4, 150 mM NaCl, 3.4 mM EDTA). Data points were taken after an association phase of 30 min. A 2 min regeneration pulse of 150 mM Na2 SO4 in injection buffer was used between injections. […]

[3] = NMR dilution experiments of 1:1 salt complexes in DMSO-d6 (phosphodiester recognition); assay type: binding
Method: [a] NMR dilution experiments with the preformed 1:1 salt complexes were performed in DMSO-d6 at […]; [b] calculated maximum shift at full complexation in ppm.
In order to determine binding constants we prepared defined 1:1 salt complexes and measured their dissociation upon stepwise dilution in [D6 ]DMSO by following the shifts of NH and OH resonances. The chemical shift values of the totally uncomplexed state (o) and the fully complexed state (n) and the stability constant Ka were subsequently determined by curve fitting. […] In all cases, data could be fitted to a 1:1 binding isotherm. […] This order mirrors the order of binding affinities and is consistent with the interpretation that differential involvement of the hydroxyl group in hydrogen bonding provides for the energetic differences in complexation.

NCC[C@@H](O)[C@H](N)CC(=O)N[C@H]1CNC(=O)[C@H]([C@H]2C[C@H](O)NC(N)=N2)NC(=O)/C(=C/NC(N)=O)NC(=O)[C@H](CO)NC(=O)[C@H](CO)NC1=O [Tuberactinomycin A] (X1-[Dap]SS[ΔAla(Z-3-ureido)][X2]; lactam 1-C)
effect on bacterial protein synthesis (in words) [1]: inhibits both initiation and elongation steps of bacterial protein synthesis

NCCCNCCO[C@H]1[C@@H](O)[C@H](O[C@@H]2[C@@H](O)[C@H](N)C[C@H](N)[C@H]2O[C@H]2O[C@H](CN)[C@@H](O)[C@H](O)[C@H]2N)O[C@@H]1CO [Compound 600, 3"-O-2-N-(3-propylamino)-ethylamino ribostamycin]
antibacterial activity / MIC compared with neomycin B (in words) [2]: very nearly the same anti microbial activity as neomycin B | Kd (Neo16-bd): < 10 nM | RNA binding, affinity or specificity for AS-wt (in words) (AS-wt): diminishing returns on the affinity without affecting the specificity; also recorded: significantly lower binding affinities toward the AS wt RNA than neomycin

[H]/N=C(/N)N[C@H]1[C@H](O)[C@@H](O)[C@H](O[C@@H]2O[C@@H](C)[C@](O)(C=O)[C@H]2O[C@@H]2O[C@@H](CO)[C@H](O)[C@@H](O)[C@@H]2NC)[C@@H](N/C(N)=N\[H])[C@@H]1O [Streptomycin]
relative binding affinity for wt-RRE-II (in words) (wt-RRE-II): weakest | RNA binding, affinity or specificity for AS-wt (in words) (AS-wt): much reduced binding affinity and no specificity | specificity for AS-wt over negative controls (in words) (AS-wt; Example 5, HBS-buffer): does not show any specificity for AS-wt

CO[C@H]1O[C@H](CN)[C@@H](O)[C@H](OCc2ccccc2)[C@H]1OCc1ccccc1 [Compound 2]
dimethylphosphate binding affinity (in words) [3]: higher affinity than bicyclic guanidine 6 | selectivity for dimethylphosphate over chloride [3]: 10 fold

CN(CC(=O)O)NC(=O)C[C@H](N)C[C@@H](O)CN [Negamycin]
effect on bacterial protein synthesis (in words) [1]: induces miscoding during translation

NCCO[C@H]1[C@@H](O)[C@H](O[C@@H]2[C@@H](O)[C@H](N)C[C@H](N)[C@H]2O[C@H]2O[C@H](CN)[C@@H](O)[C@H](O)[C@H]2N)O[C@@H]1CO [Compound 500, 3"-O-Ethyl-2-amino ribostamycin]
antibacterial activity / MIC compared with neomycin B (in words) [2]: very nearly the same anti microbial activity as neomycin B | Kd (Neo16-bd): < 10 nM | RNA binding, affinity or specificity for AS-wt (in words) (AS-wt): binding affinity goes up by an order of magnitude but specificity is unaffected; also recorded: significantly lower binding affinities toward the AS wt RNA than neomycin
